Experimental findings from US20200331950A1, “SGLTS INHIBITOR AND APPLICATION THEREOF” (SHANDONG DANHONG PHARMACEUTICAL CO., LTD., priority 2018, published 2020) are described below.

The data set in a line: In vivo pharmacokinetics in Beagle dogs. Conditions: male Beagle dogs. From the text: Study on the In Vivo Pharmacokinetics in Beagle Dogs
The purpose of the experiment: Male beagle (Beagle) dogs were used as test animals and were given a single administration to determine the plasma concentration of the compound and evaluate the pharmacokinetic behavior.
Experimental method: Six male Beagle dogs were divided into 2 groups, with 3 dogs in an intravenous injection group and 3 dogs in an oral administration group. In the intravenous injection group, the test compound was mixed with an appropriate amount of vehicle (20% polyethylene glycol-400 (PEG400)/10% polyethylene glycol-15 hydroxy stearate (available from solutol)/70% water), then vortexed and sonicated to prepare 1 mg/mL clear solution, which was filtered by microporous membrane. In the oral administration group, 20% polyethylene glycol-400 (PEG400)/10% polyethylene glycol-15 hydroxy stearate (available from solutol)/70% water was used as a vehicle and mixed with the test compound, then vortexed and sonicated to prepare 1 mg/mL clear solution. The dogs were given intravenous administration at a dose of 1 mg/kg or oral administration at a dose of 2 mg/kg. Whole blood was collected at a certain period of time to prepare the plasma. The drug concentration of the plasma was analyzed by LC-MS/MS method, and the pharmacokinetic parameters were calculated using Phoenix WinNonlin software (Pharsight Company, USA).

Structures are written as SMILES.

For the molecule `CCc1ccc([C@@H]2O[C@H](SC)[C@@H](O)[C@H](O)[C@H]2O)cc1Cc1ccc(C2=CCC(F)(F)CC2)cc1` [WXD010], for the setting “dog, plasma, intravenous 1 mg/kg or oral 2 mg/kg, read-out: Cl (clearance rate)”, the clearance worked out at 6.9 mL/min/kg. The half-life (dog, plasma, intravenous 1 mg/kg or oral 2 mg/kg, read-out: T1/2 (half-life) (converted)) is 2.4 h. For the same molecule, the Vd (dog, plasma, intravenous 1 mg/kg or oral 2 mg/kg, read-out: Vdss (distribution volume)) was 1.49 L/kg. For the same molecule, where the note is “dog, plasma, intravenous 1 mg/kg, oral 2 mg/kg, read-out: F % (oral bioavailability)”, the bioavailability – broadly, the share of a dose that reaches the circulation, judged against a reference dose that is usually intravenous – was 82%. The concentration (dog, single administration, intravenous 1 mg/kg or oral 2 mg/kg, plasma) peaked (Cmax) at 1290 nM. In addition, the “Oral DNAUC (AUCPO/Dose)” value (oral 2 mg/kg) is reported as 4051 nM · h/mpk.
